In patent publication US9271974B2, “Use of oxycodone for treating visceral pain” (PURDUE PHARMA L.P., priority 2005, dated 2016):

Columns and labels:
Assay type in all cases: in vivo, human
muscular pain = assay: Experimental muscular pain (pressure, electrical stimuli in muscle) in healthy volunteers; conditions: for analgesic effect in muscle versus placebo: oral solution, morphine 30 mg, oxycodone 15 mg, FIG. 1
From the text: (§1) The experimental studies referred to below, are based on a comparison of different drugs at healthy volunteers by applying experimental pain, since clinical studies provide insufficient information, partly due to the great difference that exists between patients and partly due to the fact that most diseases produce many symptoms other than pain, which affects the assessment of pain-killing efficacy. Experimental pain can be administered under controlled conditions in healthy volunteers so that this bias can be avoided. However, several experimental stimuli are necessary to simulate the complex clinical situation. It is also necessary to use different opioids to obtain sufficient differentiated knowledge about deep pain on different pain mechanisms, and an assessment of the clinical action spectrum of opioids. For testing the efficacy of different opioids for treating visceral pain a standardized test battery of cutaneous, muscular and visceral stimuli was applied. Blood samples were taken for determination of the opioid concentration in plasma.
In recent years methods by which deep and visceral stimuli can be administered reproducibly have been developed. These methods allow activation of the pain system with different stimuli, with the possibility of activating various types of nerve pathways in the same experiment. In the trial described herein the efficacy of different opioids on different types of stimuli of skin, muscles and bowel in healthy volunteers have been compared. Cutaneous and muscular pain was administered by pressure, current and temperature (skin only). The stimulation of the internal organs was also produced by pressure via a balloon located at the bottom of the oesophagus. The balloon can be distended and produce mechanical stimuli, which feel like mild pain/discomfort. In addition, cold and heat stimuli can be administered by passing water of differing temperature through the balloon. […]

visceral pain [1] = assay: Experimental visceral pain, mechanical stimulation of the oesophagus via balloon distension, in healthy volunteers
From the text: as §1
(§2) In recent years methods by which deep and visceral stimuli can be administered reproducibly have been developed. These methods allow activation of the pain system with different stimuli, with the possibility of activating various types of nerve pathways in the same experiment. […]

visceral pain [2] = assay: Experimental visceral pain, heat stimulation of the oesophagus via hot water into the balloon, in healthy volunteers
From the text: as §1, §2

cutaneous pain = assay: Experimental cutaneous pain (pressure, electrical, thermal stimuli on skin) in healthy volunteers
From the text: as §1, §2

[3] = oral, morphine 30 mg vs oxycodone 15 mg, all modalities tested
[4] = oral oxycodone 15 mg vs morphine 30 mg and placebo, FIG. 2

CN1CC[C@]23c4c5ccc(O)c4O[C@H]2[C@@H](O)C=C[C@H]3[C@H]1C5 [morphine]
analgesic effect in muscle versus placebo (muscular pain): significantly more analgesic than placebo
analgesic effect against mechanical stimulation in viscera (oesophagus), in comparison to placebo (visceral pain [1]; oral morphine 30 mg vs placebo): a certain analgesic effect
analgesic effect against heat pain stimulation in viscera (oesophagus), in comparison to placebo (visceral pain [2]; oral morphine 30 mg vs placebo): a certain analgesic effect

COc1ccc2c3c1O[C@H]1C(=O)CC[C@@]4(O)[C@@H](C2)N(C)CC[C@]314 [oxycodone]
analgesic effect in the skin versus placebo (cutaneous pain; oral solution, morphine 30 mg, oxycodone 15 mg, FIG. 1): significantly more analgesic than placebo
difference in analgesic effect between morphine and oxycodone in the skin (cutaneous pain; [3]): no significant difference between morphine and oxycodone
analgesic effect in muscle versus placebo (muscular pain): significantly more analgesic than placebo
difference in analgesic effect between morphine and oxycodone in muscle (muscular pain; [3]): no significant difference between morphine and oxycodone
analgesic effect against mechanical stimulation in viscera (oesophagus), in comparison to morphine and placebo (visceral pain [1]; [4]): significantly better analgesic effect
analgesia against heat pain stimulation in viscera (oesophagus), in comparison to morphine and placebo (visceral pain [2]; [4]): significantly greater analgesia
